Measured values taken from patent EP0326329B1, “Quinazoline derivatives useful as insecticides” (Dow AgroSciences LLC, priority 1988, dated 1989).

Legend:
Assay type in all cases: in vivo
[1] = test system: Botrytis cinerea (gray mold); test: Greenhouse Test 1, foliar spray fungicide screen (GRAY MOLD), host grape berries; settings: disease control rating, 400 ppm (+++ at 100 ppm)
[2] = test system: Erysiphe graminis tritici (powdery mildew); test: Greenhouse Test 1, foliar spray fungicide screen (POWD MDEW), host wheat; settings: disease control rating, 400 ppm (+++ at 100 ppm)
[3] = test system: Puccinia recondita tritici (leaf rust); test: Greenhouse Test 1, foliar spray fungicide screen (LEAF RUST), host wheat; settings: disease control rating, 400 ppm (+++ at 100 ppm)
[4] = test system: southern armyworm (Spodopetra eridania Cramer); test: Mite/insect screen, sprayed squash leaves (SAW); settings: Spodoptera eridania, percent mortality, read-out: SAW RESULTS %; for mortality at 200 ppm: spray rate 200 ppm; for mortality at 400 ppm: spray rate 400 ppm
Procedure, shortened: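 For the armyworm test, two uninfested sprayed leaves were excised, once dry for an hour, and placed in a Petri dish holding larvae. Spray solutions came from an emulsifier-containing 50:50 acetone/alcohol formulation diluted with water and were applied to runoff.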

[5] = test system: melon aphids (Aphis gossypii Glover); test: Mite/insect screen, sprayed squash cotyledons (MA); settings: Aphis gossypii, percent mortality, read-out: MA RESULTS %; for mortality at 200 ppm: spray rate 200 ppm; for mortality at 400 ppm: spray rate 400 ppm
Procedure, shortened: (§1)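 Compounds dissolved in acetone/alcohol with TOXIMUL R/S emulsifiers, diluted with water to test concentrations, and sprayed to runoff on both leaf surfaces at 10 psi, then dried 1 h. Excised treated squash leaves given southern armyworm larvae; aphid and spider mite tests on sprayed squash cotyledons. Percent mortality and phytotoxicity scored after standard exposure.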

[6] = test system: Pseudoperonospora cubensis (downy mildew); test: Greenhouse Test 1, foliar spray fungicide screen (DOWN MDEW), host squash; settings: disease control rating, 400 ppm (+++ at 100 ppm)
[7] = test system: Southern corn rootworm (Diabrotica undecimpuctata howardi Barber); test: Mite/insect screen, soil treatment (CRW); settings: Diabrotica, percent mortality, soil treatment, read-out: CRW RESULTS %; for mortality at 12 ppm: CRW rate 12.00 ppm; for mortality at 24 ppm: CRW rate 24.00 ppm
Procedure, shortened: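 Compounds dissolved in acetone/alcohol (50:50) with Toximul R/S emulsifiers, diluted with water. Soil (15 g, with presoaked corn seed) treated with 1 mL test solution, dried 6–12 h, then five 2–3 instar larvae added; held at 23°C. Percent mortality and phytotoxicity scored after standard exposure periods.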

[8] = test system: Twospotted spider mites (Tetranychus urticae Koch); test: Mite/insect screen, sprayed squash cotyledons (SM); settings: Tetranychus urticae, percent mortality, read-out: SM RESULTS %; for mortality at 200 ppm: spray rate 200 ppm; for mortality at 400 ppm: spray rate 400 ppm
Procedure, shortened: as §1

[9] = test system: Pyricularia oryzae (rice blast); settings: disease control rating, foliar spray, host rice; 400 ppm (+++ at 100 ppm)

Structure (SMILES)	GRAY MOLD [1]	POWD MDEW [2]	LEAF RUST [3]	mortality at 200 ppm [4]	mortality at 400 ppm [4]	mortality at 200 ppm [5]	mortality at 400 ppm [5]	DOWN MDEW [6]	mortality at 12 ppm [7]	mortality at 24 ppm [7]	mortality at 200 ppm [8]	mortality at 400 ppm [8]	RICE BLAST [9]
c1ccc(CCOc2ncnc3ccccc23)cc1 [Example 33, 4-(2-phenylethoxy)quinazoline]	- (- = 0-19% control at 400 ppm)	++ (++ = 90-100% control at 400 ppm)	+++ (+++ = 90-100% control at 100 ppm)	0%	0%	80%	100%	++ (++ = 90-100% control at 400 ppm)	0%	80%	50%	80%	- (- = 0-19% control at 400 ppm)
Cc1ccc2ncnc(NCCc3cccc(Oc4ccccc4)c3)c2c1 [Example 190, 6-methyl-N-[2-(3-phenoxyphenyl)ethyl]-4-quinazolinamine]	- (- = 0-19% control at 400 ppm)	+++ (+++ = 90-100% control at 100 ppm)	+++ (+++ = 90-100% control at 100 ppm)	0%	0%	40%	0%	+++ (+++ = 90-100% control at 100 ppm)	0%	0%	80%	0%	+++ (+++ = 90-100% control at 100 ppm)
Clc1ccc(CCCc2ncnc3ccccc23)cc1 [Example 117, 4-[3-(4-chlorophenyl)propyl]quinazoline]	- (- = 0-19% control at 400 ppm)	+++ (+++ = 90-100% control at 100 ppm)	+++ (+++ = 90-100% control at 100 ppm)	0%	0%	90%	0%	++ (++ = 90-100% control at 400 ppm)	0%	0%	100%	0%	++ (++ = 90-100% control at 400 ppm)
FC(F)(F)c1cccc(CCCOc2ncnc3ccccc23)c1 [Example 196, 4-[3-(3-trifluoromethylphenyl)propoxy]quinazoline]	- (- = 0-19% control at 400 ppm)	++ (++ = 90-100% control at 400 ppm)	- (- = 0-19% control at 400 ppm)	0%	0%	0%	0%	- (- = 0-19% control at 400 ppm)	0%	0%	0%	0%	- (- = 0-19% control at 400 ppm)
COc1ccc(CCOc2ncnc3c(F)cccc23)cc1OC [Example 112, 8-fluoro-4-[2-(3,4-dimethoxyphenyl)ethoxy]quinazoline]	- (- = 0-19% control at 400 ppm)	+ (+ = 20-89% control at 400 ppm)	+++ (+++ = 90-100% control at 100 ppm)	0%	0%	80%	0%	+++ (+++ = 90-100% control at 100 ppm)	0%	0%	0%	0%	+++ (+++ = 90-100% control at 100 ppm)
Cc1cccc2ncnc(NCCc3ccc(Cl)cc3)c12 [Example 36, N-[2-(4-chlorophenyl)ethyl]-5-methyl-4-quinazolinamine]	- (- = 0-19% control at 400 ppm)	- (- = 0-19% control at 400 ppm)	- (- = 0-19% control at 400 ppm)	0%	0%	0%	0%	+ (+ = 20-89% control at 400 ppm)	0%	0%	0%	0%	+ (+ = 20-89% control at 400 ppm)
